Patent publication US11298367B2, “Prodrugs of substituted triazole derivatives and uses thereof” (Bayer Aktiengesellschaft, priority 2017, dated 2022)

What was measured:
human V1a receptor = molecular target: T1, human V1a receptor (Homo sapiens, UniProt P37288); assay: Cellular in vitro assay for vasopressin receptor activity (V1a, aequorin luminescence); format: cell-based; conditions: for IC50: CHO cell line with human V1a receptor, [Arg8]-vasopressin at EC50, values are for the prodrug as such, read-out: IC50 hV1a; for ratio IC50 hV2/hV1a: selectivity ratio hV2/hV1a
T1 construct: expressed in transfected cells; host or cells: CHO K1 (Chinese hamster ovary), also stably transfected with a modified aequorin
Procedure: (§1) B-1. Cellular In Vitro Assay for Determining Vasopressin Receptor Activity
(§2) The identification of agonists and antagonists of the V1a and V2 vasopressin receptors from humans, rats and dogs as well as the quantification of the activity of the compounds of the invention is carried out using recombinant cell lines. These cell lines originally derive from a hamster's ovary epithelial cell (Chinese Hamster Ovary, CHO K1, ATCC: American Type Culture Collection, Manassas, Va. 20108, USA). The test cell lines constitutively express the human, rat or dog V1a or V2 receptors. In case of the Gaq-coupled V1a receptors, cells are also stably transfected with a modified form of the calcium-sensitive photoproteins aequorin (human and rat V1a) or obelin (dog V1a), which, after reconstitution with the cofactor coelenterazine, emit light when there are increases in free calcium concentrations [Rizzuto R, Simpson A W, Brini M, Pozzan T, Nature 358, 325-327 (1992); Illarionov B A, Bondar V S, Illarionova V A, Vysotski E S, Gene 153 (2), 273-274 (1995)]. The resulting vasopressin receptor cells react to stimulation of the recombinantly expressed Via receptors by intracellular release of calcium ions, which can be quantified by the resulting photoprotein luminescence. The Gs-coupled V2 receptors are stably transfected into cell lines expressing the gene for firefly luciferase under control of a CRE-responsible promoter. Activation of V2 receptors induces the activation of the CRE-responsive promoter via cAMP increase, thereby inducing the expression of firefly luciferase. The light emitted by photoproteins of V1a cell lines as well as the light emitted by firefly luciferase of V2 cell lines corresponds to the activation or inhibition of the respective vasopressin receptor. The bioluminescence of the cell lines is detected using a suitable luminometer [Milligan G, Marshall F, Rees S, Trends in Pharmacological Sciences 17, 235-237 (1996)].
Vasopressin V1a Receptor Cell Lines:
On the day before the assay, the cells are plated out in culture medium (DMEM/F12, 2% FCS, 2 mM glutamine, 10 mM HEPES, 5 μg/ml coelenterazine) in 384-well microtiter plates and kept in a cell incubator (96% humidity, 5% v/v CO2, 37C). On the day of the assay, test compounds in various concentrations are placed for 10 minutes in the wells of the microtiter plate before the agonist [Arg^8]-vasopressin at EC50 concentration is added. The resulting light signal is measured immediately in a luminometer.
(§3) Table 1A below lists individual IC50 values for the compounds of the invention (including racemic mixtures as well as separated enantiomers) that were obtained from cell lines transfected with the human V1a or V2 receptor. This means these IC50 values are the values for the prodrug and not for the underlying respective drug as the prodrug is mainly stable under the assay conditions.

Solubility = format: physicochemical; conditions: 24 h room temperature, max. 500 μg/ml; for solubility at 24 h: thermodynamic from solid
Procedure: For each substance 0.5-0.6 mg are weighed exactly. In each case, sufficient medium is added to the sample in such a way that a concentration of c=500 μg/ml is obtained. This sample solution is shaken for 24 h at room temperature and 1400 rpm.
A further sample weight of 0.5-0.6 mg is required for the DMSO calibration solution. This sample is filled with DMSO to a concentration of c=600 μg/ml. Two calibration solutions are prepared from this stock solution. In a 2 ml HPLC vial, 1000 μl of DMSO are initially introduced and 34.4 μl of the stock solution are pipetted (c=20 µg/ml). […] of this solution (c=20 μg/ml) are placed in a further 2 ml HPLC vial containing 500 μl of DMSO (c=2.5 μg/ml).
After shaking the test solutions, 230 μl of the supernatant are transferred into a centrifuge tube and centrifuged at 42 000 rpm (223 000 g) for 30 min. 180 μl of the supernatant are then taken and each diluted with DMSO (1:5 sample 1; 1:100 sample 2), and transferred to HPLC vials. The two calibration solutions and the dilute sample solutions are analyzed by HPLC. Quantification is performed over the corresponding peak areas.
Distilled water; trifluoroacetic acid (Merck; 1.08262.0100); acetonitrile (HPLC grade); DMSO (Merck; 8.02912.2500).
Fluka buffer, Order No. 33643 (11.76 g citric acid, 2.57 g sodium chloride and 2.72 g sodium hydroxide).
Fluka buffer, Order No. 33646 (3.52 g potassium dihydrogenphosphate, 7.26 g sodium hydrogen phosphate).
Solution of 6.18 g sodium chloride and 3.96 g sodium dihydrogen phosphate in 1 L distilled water, adjust with 1M aqueous sodium hydroxide solution to pH 7.4.
0.6057 g TRIS was dissolved in 95 ml water, adjust to pH 8.5 with aqueous hydrochloric acid, fill with water until 100 ml volume is reached.

human V2 receptor = molecular target: T2, human V2 receptor (Homo sapiens, UniProt P30518); assay: Cellular in vitro assay for vasopressin receptor activity (V2, CRE-luciferase); format: cell-based; conditions: CHO cell line with human V2 receptor, [Arg8]-vasopressin at EC50; values are for the prodrug as such; read-out: IC50 hV2
T2 construct: expressed in transfected cells; host or cells: CHO K1 cells expressing firefly luciferase under a CRE-responsive promoter
Procedure: as §1, §2
Vasopressin V2 Receptor Cell Lines:
On the day before the assay, the cells are plated out in culture medium (DMEM/F12, 2% FCS, 2 mM glutamine, 10 mM HEPES) in 384-well microtiter plates and kept in a cell incubator (96% humidity, 5% v/v CO2, 37C). On the day of the assay, test compounds in various concentrations and the agonist [Arg^8]-vasopressin at EC50 concentration are added together to the wells, and plates are incubated for 3 hours in a cell incubator. Upon addition of the cell lysis reagent Triton™ and the substrate luciferin, luminescence of firefly luciferase is measured in a luminometer.
as §3

[1] = PBS buffer pH 7.4, pH 7.4, aqueous buffer, pH = 7.4 PBS buffer
[2] = Tris buffer pH 8.5, pH 8.5, aqueous buffer, pH = 8.5 Tris buffer
[3] = citrate buffer pH 4, pH 4, aqueous buffer, pH = 4 citrate buffer

T2 sequence (P30518 whole entry): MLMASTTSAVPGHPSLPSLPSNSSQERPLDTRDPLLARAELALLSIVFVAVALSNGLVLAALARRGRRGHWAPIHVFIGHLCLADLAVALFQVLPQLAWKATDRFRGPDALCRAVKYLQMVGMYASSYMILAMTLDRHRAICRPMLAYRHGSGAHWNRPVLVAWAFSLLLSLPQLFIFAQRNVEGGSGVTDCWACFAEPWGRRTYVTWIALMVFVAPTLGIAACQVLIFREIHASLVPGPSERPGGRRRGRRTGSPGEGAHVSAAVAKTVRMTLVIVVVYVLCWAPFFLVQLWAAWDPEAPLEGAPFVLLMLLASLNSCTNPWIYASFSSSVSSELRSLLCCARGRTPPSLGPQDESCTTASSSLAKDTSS
T1 sequence (P37288 whole entry): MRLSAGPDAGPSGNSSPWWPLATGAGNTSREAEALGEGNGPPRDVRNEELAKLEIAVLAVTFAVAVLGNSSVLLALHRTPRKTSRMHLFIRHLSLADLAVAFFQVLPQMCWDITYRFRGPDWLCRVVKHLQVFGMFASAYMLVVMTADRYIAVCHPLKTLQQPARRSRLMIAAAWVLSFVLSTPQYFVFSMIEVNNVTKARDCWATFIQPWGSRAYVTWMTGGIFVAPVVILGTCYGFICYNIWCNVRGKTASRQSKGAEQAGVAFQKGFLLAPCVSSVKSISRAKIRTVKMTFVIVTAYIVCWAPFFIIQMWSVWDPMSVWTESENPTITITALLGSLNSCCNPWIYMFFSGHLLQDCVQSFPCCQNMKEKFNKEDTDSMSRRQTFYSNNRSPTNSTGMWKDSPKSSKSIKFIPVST

| Compound | IC50 (human V1a receptor) [nM] | ratio IC50 hV2/hV1a (human V1a receptor; Phosphate) | solubility at 24 h (Solubility; [1]) [µg/mL] | solubility at 24 h (Solubility; [2]) [µg/mL] | solubility at 24 h (Solubility; [3]) [µg/mL] | IC50 (human V2 receptor) [nM] | Solubility (Solubility; pH = 4 citrate buffer) [µg/mL] | Solubility (Solubility; pH = 7.4 PBS buffer, Phosphate) [µg/mL] | Solubility (Solubility; pH = 8.5 Tris buffer, Phosphate) [µg/mL] | ratio IC50 hV2/hV1a (human V1a receptor) |
| --- | --- | --- | --- | --- | --- | --- | --- | --- | --- | --- |
| NC(=O)c1nc(Cn2nc(-c3ccc(Cl)cc3)n(C[C@H](OP(=O)([O-])O)C(F)(F)F)c2=O)nn1-c1ncccc1C(F)(F)F.[Na+] [Example 4, Sodium (2S)-3-[1-({5-carbamoyl-1-[3-(trifluoromethyl)pyridin-2-yl]-1H-1,2,4-triazol-3-yl}-methyl)-3-(4-chlorophenyl)-5-oxo-1,5-dihydro-4H-1,2,4-triazol-4-yl]-1,1,1-trifluoropropan-2-yl Hydrogen Phosphate] | 11.1 | 13.5 | > 500 | > 500 | > 500 | 150 |  |  |  |  |
| NC(=O)c1nc(Cn2nc(-c3ccc(Cl)cc3)n(C[C@H](OP(=O)([O-])O)C(F)(F)F)c2=O)nn1-c1ncccc1C(F)(F)F.[Li+] [Example 6, Lithium (2S)-3-[1-({5-carbamoyl-1-[3-(trifluoromethyl)pyridin-2-yl]-1H-1,2,4-triazol-3-yl}-methyl)-3-(4-chlorophenyl)-5-oxo-1,5-dihydro-4H-1,2,4-triazol-4-yl]-1,1,1-trifluoropropan-2-yl Hydrogen Phosphate] | 15.5 | 14.2 | 464 | 464 | > 500 | 220 |  |  |  |  |
| NC(=O)c1nc(Cn2nc(-c3ccc(Cl)cc3)n(C[C@H](OP(=O)([O-])O)C(F)(F)F)c2=O)nn1-c1ncccc1C(F)(F)F.[Li+] [Example 7, Lithium (2S)-3-[1-({5-carbamoyl-1-[3-(trifluoromethyl)pyridin-2-yl]-1H-1,2,4-triazol-3-yl}-methyl)-3-(4-chlorophenyl)-5-oxo-1,5-dihydro-4H-1,2,4-triazol-4-yl]-1,1,1-trifluoropropan-2-yl Hydrogen Phosphate] | 8.85 | 18.1 |  |  |  | 160 | >500 | >500 | >500 |  |
| NC(=O)c1nc(Cn2nc(-c3ccc(Cl)cc3)n(C[C@H](OP(=O)([O-])[O-])C(F)(F)F)c2=O)nn1-c1ncccc1C(F)(F)F.[Mg+2] [Example 9, Magnesium (2S)-3-[1-({5-carbamoyl-1-[3-(trifluoromethyl)pyridin-2-yl]-1H-1,2,4-triazol-3-yl}-methyl)-3-(4-chlorophenyl)-5-oxo-1,5-dihydro-4H-1,2,4-triazol-4-yl]-1,1,1-trifluoropropan-2-yl Phosphate] | 14 |  | > 500 | 447 | > 500 | 225 |  |  |  | 16.1 |
| NC(=O)c1nc(Cn2nc(-c3ccc(Cl)cc3)n(C[C@H](OP(=O)([O-])O)C(F)(F)F)c2=O)nn1-c1ncccc1Cl.[Na+] [Example 20, Sodium (2S)-3-[1-{[5-carbamoyl-1-(3-chloropyridin-2-yl)-1H-1,2,4-triazol-3-yl]methyl}-3-(4-chlorophenyl)-5-oxo-1,5-dihydro-4H-1,2,4-triazol-4-yl]-1,1,1-trifluoropropan-2-yl Hydrogen Phosphate] | 39.5 | 2.2 | > 500 | > 500 | > 500 | 85.5 |  |  |  |  |
| NC(=O)c1nc(Cn2nc(-c3ccc(Cl)cc3)n(C[C@H](OP(=O)([O-])[O-])C(F)(F)F)c2=O)nn1-c1ncccc1Cl.[Mg+2] [Example 22, Magnesium (2S)-3-[1-{[5-carbamoyl-1-(3-chloropyridin-2-yl)-1H-1,2,4-triazol-3-yl]methyl}-3-(4-chlorophenyl)-5-oxo-1,5-dihydro-4H-1,2,4-triazol-4-yl]-1,1,1-trifluoropropan-2-yl Phosphate] | 45 |  | > 500 | > 500 | > 500 | 90 |  |  |  | 2.0 |
